# Measurements taken from patent publication US5118811A, “Amino acid derivatives possessing prolyl endopeptidase-inhibitory activities” (Japan Tobacco Inc., priority 1989, dated 1992).
# Columns and labels:
# prolyl endopeptidase = target: T1, prolyl endopeptidase (Rattus norvegicus, UniProt O70196); assay: Prolyl Endopeptidase-Inhibitory Activity; assay type: biochemical; conditions: for IC50: prolyl endopeptidase extracted from rat brain, pH 7.0, 30° C., preincubated 30 minutes, 1 hour; for inhibition at 10 µM: 1 × 10^-5 M; for inhibition at 10 µM / inhibition at 0.01 µM / inhibition at 1 µM: read-out: Inhibition rate, prolyl endopeptidase; for inhibition at 0.01 µM: 1 × 10^-8 M; for inhibition at 1 µM: 1 × 10^-6 M
# T1 construct: prolyl endopeptidase extracted from rat brain; from tissue; host or cells: rat brain
# T1 sequence (O70196 whole entry): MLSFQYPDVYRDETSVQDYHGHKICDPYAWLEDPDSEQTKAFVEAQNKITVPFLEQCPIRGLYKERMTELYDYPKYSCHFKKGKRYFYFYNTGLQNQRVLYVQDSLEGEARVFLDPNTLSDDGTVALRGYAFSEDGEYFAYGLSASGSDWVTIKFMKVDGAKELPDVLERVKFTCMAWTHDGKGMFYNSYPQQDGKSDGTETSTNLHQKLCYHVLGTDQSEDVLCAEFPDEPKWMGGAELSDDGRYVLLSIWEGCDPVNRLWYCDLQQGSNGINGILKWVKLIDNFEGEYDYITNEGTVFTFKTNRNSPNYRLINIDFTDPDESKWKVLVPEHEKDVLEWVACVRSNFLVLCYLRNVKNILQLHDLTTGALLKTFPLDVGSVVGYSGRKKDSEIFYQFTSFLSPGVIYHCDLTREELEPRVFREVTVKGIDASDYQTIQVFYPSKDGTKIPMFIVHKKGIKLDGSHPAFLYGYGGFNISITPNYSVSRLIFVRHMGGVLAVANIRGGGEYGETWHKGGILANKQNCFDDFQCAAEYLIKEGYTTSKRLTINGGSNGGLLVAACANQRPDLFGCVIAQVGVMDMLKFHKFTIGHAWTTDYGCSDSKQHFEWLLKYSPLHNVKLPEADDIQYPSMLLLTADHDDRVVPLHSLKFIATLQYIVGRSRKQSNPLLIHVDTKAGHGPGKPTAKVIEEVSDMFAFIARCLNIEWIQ
# Protocol: A mixture of a 0.1M potassium sodium phosphate buffer (pH 7.0) (2675 μl), a solution of the compounds of the present invention in a 0.1M potassium sodium phosphate buffer (pH 7.0) (100 μl) and a solution of prolyl endopeptidase extracted from rat brain in a 25 mM sodium phosphate buffer (100 μl) [123 unit/1, pH 6.8, containing 1 mM dithiothreitol and 0.5 mM EDTA, prepared by the method described in J. Neurochem., 35, 527 (1980)] was preincubated at 30° C. for 30 minutes. Thereto was added a 0.2 mM solution of 7-(N-succinyl-glycyl-prolyl)-4-methylcoumarinamide (Peptide Institute, INC.) in a 0.1M potassium sodium phosphate buffer (pH 7.0) (125 μl), and the mixture was incubated at 30° C. for 1 hour. The reaction mixture was immersed in ice (0° C.) to terminate the reaction, and the fluorescence (a1) was determined ten minutes later (excitation at 370 nm and emission at 440 nm). Concurrently, there were conducted the experiment wherein, in the above system, the prolyl endopeptidase solution was substituted for a 25 mM sodium phosphate buffer (pH 6.8, containing 1 mM dithiothreitol and 0.5 mM EDTA) and the experiment wherein the solution of the compounds of the present invention was also substituted for a 0.1M potassium sodium phosphate buffer (pH 7.0). Each fluorescence (a2 and a3) was also determined respectively [See Tanpakushitsu Kakusan Koso, 29, 127 (1984)]. The prolyl endopeptidase-inhibition rate was calculated by the following formula, and IC50, a concentration of a compound producing 50% inhibition, was estimated by semilogarithmic graph paper. [formula]
# trypsin = target: T2, trypsin (Bos taurus, UniProt P00760); assay: Trypsin-Inhibitory Activity; assay type: biochemical, bovine; conditions: read-out: Inhibition rate, trypsin; for inhibition at 10 µM: 1 × 10^-5 M; for inhibition at 0.01 µM: 1 × 10^-8 M; for inhibition at 1 µM: 1 × 10^-6 M
# T2 construct: purchased Sigma; host or cells: bovine pancreas
# T2 sequence (P00760 24-246): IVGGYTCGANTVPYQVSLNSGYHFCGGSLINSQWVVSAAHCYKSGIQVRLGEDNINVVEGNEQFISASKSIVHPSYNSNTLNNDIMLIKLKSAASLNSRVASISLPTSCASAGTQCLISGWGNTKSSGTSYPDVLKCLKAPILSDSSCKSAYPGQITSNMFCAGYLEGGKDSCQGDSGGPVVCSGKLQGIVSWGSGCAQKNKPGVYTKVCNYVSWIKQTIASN
# Protocol: In the present invention, a 50 mM Tris-HCl buffer (pH 8.0) was employed as a buffer for measurement.
# To a mixture of the above-mentioned buffer (850 μl), a solution of the compounds of the present invention in the same buffer (50 μl) and a 0.02 μM solution of trypsin (derived from bovine pancreas, Sigma) in the same buffer (50 μl) was added a 200 μM solution of 7-(prolyl-phenylaranyl-arginyl)-4-methylcoumarinamide (Peptide Institute, Inc.) in the same buffer (50 μl), and the mixture was incubated at 30° C. for 1 hour. The reaction mixture was immersed in ice (0° C.) to terminate the reaction, and the fluorescence (b1) was determined 1 hour later (excitation at 370 nm and emission at 440 nm). Concurrently, there were conducted the experiment wherein, in the system above, the trypsin solution was substituted for a buffer alone, and the experiment wherein the solution of the compounds of the present invention was also substituted for a buffer above. Each fluorescence (b2 and b3) was also determined respectively.
# (§1) Using the fluorescence x1, x2 and x3 measured in the above-mentioned manner, the inhibitory rate against various proteases was calculated by the following formula where x stands for b, c, d, e or f: [formula]
# chymotrypsin = target: T3, chymotrypsin (Bos taurus, UniProt P00766); assay: Chymotrypsin-Inhibitory Activity; assay type: biochemical, bovine; conditions: read-out: Inhibition rate, chymotrypsin; for inhibition at 10 µM: 1 × 10^-5 M; for inhibition at 0.01 µM: 1 × 10^-8 M; for inhibition at 1 µM: 1 × 10^-6 M
# T3 construct: purchased Sigma; host or cells: bovine pancreas
# Protocol: (§2) Similarly, by following the procedure mentioned above, but employing a 50 mM Tris-HCl buffer (pH 8.0) as a buffer for measurement, a 0.2 μM solution of chymotrypsin (derived from bovine pancrease, Sigma) in the same buffer as an enzyme solution and a 200 μM solution of 7-(N-succinyl-leucyl-leucyl-valyl-tyrosyl)-4-methylcoumarinamide (Peptide Institute, Inc.) in the same buffer as a substrate solution. Each fluorescence (c1, c2 and c3) was also determined, respectively.
# as §1
# leucine aminopeptidase = assay: Leucine Aminopeptidase-Inhibitory Activity; assay type: biochemical, swine
# Protocol: as §2, with “leucine aminopeptidase” for “chymotrypsin”, “swine kidney,” for “bovine pancrease,”, “7-(leucyl-4-methylcoumarinamide” for “7-(N-succinyl-leucyl-leucyl-valyl-tyrosyl)-4-methylcoumarinamide”, “(d1, d2” for “(c1, c2”, “d3)” for “c3)”
# as §1
# elastase = target: T4, elastase (Sus scrofa, UniProt P00772); assay: Elastase-Inhibitory Activity; assay type: biochemical, swine; conditions: read-out: Inhibition rate, elastase; for inhibition at 10 µM: 1 × 10^-5 M; for inhibition at 0.01 µM: 1 × 10^-8 M; for inhibition at 1 µM: 1 × 10^-6 M
# T4 construct: purchased Sigma; host or cells: swine pancreas
# T4 sequence (P00772 27-266): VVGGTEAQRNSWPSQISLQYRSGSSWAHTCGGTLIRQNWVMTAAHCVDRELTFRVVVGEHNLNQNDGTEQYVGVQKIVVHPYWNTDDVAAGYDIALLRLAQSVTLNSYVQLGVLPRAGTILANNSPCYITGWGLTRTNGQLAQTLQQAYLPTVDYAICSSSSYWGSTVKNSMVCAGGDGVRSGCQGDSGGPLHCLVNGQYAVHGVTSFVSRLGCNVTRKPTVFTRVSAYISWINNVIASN
# Protocol: Similarly, by following the procedure mentioned above, but employing a 1 mM Tris-HCl buffer (pH 8.5) as a buffer for measurement, a 0.2 μM solution of elastase (derived from swine pancreas, Sigma) in the same buffer as an enzyme solution and a 200 μM solution of 7-(N-succinyl-aranyl-prolyl-aranyl)-4-methylcoumarinamide (Peptide Institute, Inc.) in the same buffer as a substrate solution. Each fluorescence (e1, e2 and e3) was also determined, respectively.
# as §1
# cathepsin B = target: T5, cathepsin B (Bos taurus, UniProt P07688); assay: Cathepsin B-Inhibitory Activity; assay type: biochemical, bovine; conditions: read-out: Inhibition rate, cathepsin B; for inhibition at 10 µM: 1 × 10^-5 M; for inhibition at 0.01 µM: 1 × 10^-8 M; for inhibition at 1 µM: 1 × 10^-6 M
# T5 construct: purchased Sigma; host or cells: bovine spleen
# Protocol: Similarly, by following the procedure mentioned above, but employing a 100 mM sodium phosphate buffer (pH 6.0; containing 1.33 mM EDTA Na2) as a buffer for measurement, a 0.02 μM solution of cathepsin B (derived from bovine spleen, Sigma) in the same buffer as an enzyme solution and a 200 μM solution of 7-(N-benzyloxycarbonyl-phenylaranyl-arginyl)-4-methylcoumarinamide (Peptide Institute, Inc.) in the same buffer as a substrate solution. Each fluorescence (f1, f2 and f3) was also determined, respectively.
# as §1
smiles,measurement,setting,value
"O=C[C@@H]1CSCN1C(=O)[C@@H]1CSCN1C(=O)CN1CCCC1=O [Compound 7, N-[(2-Oxo-1-pyrrolidinyl)acetyl]-L-thioprolyl-L-thioprolinal]",IC50,prolyl endopeptidase,5 nM
"O=C1CCCN1CC(=O)N1CCC[C@H]1C(=O)N1CCSC1 [Compound 8, 3-{N-[(2-Oxo-1-pyrrolidinyl)acetyl]-L-prolyl}thiazolidine]",inhibition at 10 µM,prolyl endopeptidase,96%
same,IC50,prolyl endopeptidase,200 nM
same,inhibition at 10 µM,trypsin,0%
same,inhibition at 10 µM,chymotrypsin,0%
same,"Inhibition rate, leucine aminopeptidase",leucine aminopeptidase; 1 × 10^-5 M,0%
same,inhibition at 10 µM,elastase,0%
same,inhibition at 10 µM,cathepsin B,0%
"N#C[C@@H]1CCCN1C(=O)[C@@H]1CCCN1C(=O)OCc1ccccc1 [Compound 19, (2S)-1-(N-Benzyloxycarbonyl-L-prolyl)-2-cyanopyrrolidine]",inhibition at 0.01 µM,prolyl endopeptidase,100%
same,IC50,prolyl endopeptidase,0.35 nM
same,inhibition at 0.01 µM,trypsin,0%
same,inhibition at 0.01 µM,chymotrypsin,0%
same,"Inhibition rate, leucine aminopeptidase",leucine aminopeptidase; 1 × 10^-8 M,0%
same,inhibition at 0.01 µM,elastase,0%
same,inhibition at 0.01 µM,cathepsin B,0%
"O=C([C@@H]1CCCN1C(=O)OCc1ccccc1)N1CCC[C@H]1C=NO [Compound 12, (2S)-1-(N-Benzyloxycarbonyl-L-prolyl)-2-pyrrolidinecarboxaldehyde oxime]",inhibition at 10 µM,prolyl endopeptidase,100%
same,IC50,prolyl endopeptidase,450 nM
same,inhibition at 10 µM,trypsin,0%
same,inhibition at 10 µM,chymotrypsin,0%
same,"Inhibition rate, leucine aminopeptidase",leucine aminopeptidase; 1 × 10^-5 M,0%
same,inhibition at 10 µM,elastase,0%
same,inhibition at 10 µM,cathepsin B,0%
"O=C1CCCN1CC(=O)N1CSC[C@H]1C(=O)N1CCSC1 [Compound 9, 3-{N-[(2-Oxo-1-pyrrolidinyl)acetyl]-L-thioprolyl}thiazolidine]",inhibition at 10 µM,prolyl endopeptidase,97%
same,IC50,prolyl endopeptidase,150 nM
same,inhibition at 10 µM,trypsin,0%
same,inhibition at 10 µM,chymotrypsin,0%
same,"Inhibition rate, leucine aminopeptidase",leucine aminopeptidase; 1 × 10^-5 M,0%
same,inhibition at 10 µM,elastase,0%
same,inhibition at 10 µM,cathepsin B,0%
"O=C([C@@H]1CCCN1C(=O)OCc1ccccc1)N1CCC[C@H]1C=NOCc1ccccc1 [Compound 18, (2S)-1-(N-Benzyloxycarbonyl-L-prolyl)-2-pyrrolidinecarboxaldehyde O-benzyloxime]",inhibition at 10 µM,prolyl endopeptidase,100%
same,IC50,prolyl endopeptidase,40 nM
same,inhibition at 10 µM,trypsin,0%
same,inhibition at 10 µM,chymotrypsin,0%
same,"Inhibition rate, leucine aminopeptidase",leucine aminopeptidase; 1 × 10^-5 M,0%
same,inhibition at 10 µM,elastase,0%
same,inhibition at 10 µM,cathepsin B,0%
"CC(=O)ON=C[C@@H]1CSCN1C(=O)[C@@H]1CSCN1C(=O)OCc1ccccc1 [Compound 17, (4R)-3-(N-Benzyloxycarbonyl-L-thioprolyl)-4-thiazolidinecarboxaldehyde O-acetyloxime]",IC50,prolyl endopeptidase,310 nM
"N#C[C@@H]1CSCN1C(=O)[C@@H]1CSCN1C(=O)OCc1ccccc1 [Compound 20, (4R)-3-(N-Benzyloxycarbonyl-L-thioprolyl)-4-cyanothiazolidine]",IC50,prolyl endopeptidase,3.2 nM
O=C[C@@H]1CCCN1C(=O)CCC(=O)N1CCCC1=O [Compound 10],IC50,prolyl endopeptidase,70 nM
"O=C[C@@H]1CSCN1C(=O)[C@@H]1CCCN1C(=O)CN1CCCC1=O [Compound 5, N-[(2-Oxo-1-pyrrolidinyl)acetyl]-L-prolyl-L-thioprolinal]",IC50,prolyl endopeptidase,3 nM
"N#C[C@@H]1CCCN1C(=O)CCC(=O)NCc1ccc(Cl)cc1 [Compound 22, (2S)-1-[4-Oxo-4-(4-chlorobenzylamino)butanoyl]-2-cyanopyrrolidine]",inhibition at 1 µM,prolyl endopeptidase,100%
same,IC50,prolyl endopeptidase,10 nM
same,inhibition at 1 µM,trypsin,0%
same,inhibition at 1 µM,chymotrypsin,0%
same,"Inhibition rate, leucine aminopeptidase",leucine aminopeptidase; 1 × 10^-6 M,0%
same,inhibition at 1 µM,elastase,0%
same,inhibition at 1 µM,cathepsin B,0%
"N#C[C@@H]1CSCN1C(=O)[C@@H]1CCCN1C(=O)CN1CCCC1=O [Compound 24, (4R)-3-{N-[(2-Oxo-1-pyrrolidinyl)acetyl]-L-prolyl}-4-cyanothiazolidine]",IC50,prolyl endopeptidase,34 nM
"CC(=O)ON=C[C@@H]1CSCN1C(=O)[C@@H]1CCCN1C(=O)CN1CCCC1=O [Compound 23, (4R)-3-{N-[(2-Oxo-1-pyrrolidinyl)acetyl]-L-prolyl}-4-thiazolidinecarboxaldehyde O-acetyloxime]",IC50,prolyl endopeptidase,640 nM
"CC(=O)ON=C[C@@H]1CCCN1C(=O)[C@@H]1CCCN1C(=O)OCc1ccccc1 [Compound 15, (2S)-1-(N-Benzyloxycarbonyl-L-prolyl)-2-pyrrolidinecarboxaldehyde O-acetyloxime]",inhibition at 1 µM,prolyl endopeptidase,100%
same,IC50,prolyl endopeptidase,4.5 nM
same,inhibition at 1 µM,trypsin,0%
same,inhibition at 1 µM,chymotrypsin,0%
same,"Inhibition rate, leucine aminopeptidase",leucine aminopeptidase; 1 × 10^-6 M,0%
same,inhibition at 1 µM,elastase,0%
same,inhibition at 1 µM,cathepsin B,0%
"O=C[C@@H]1CCCN1C(=O)[C@@H]1CCCN1C(=O)CN1CCCC1=O [Compound 4, N-[(2-Oxo-1-pyrrolidinyl)acetyl]-L-prolyl-L-prolinal]",inhibition at 0.01 µM,prolyl endopeptidase,100%
same,IC50,prolyl endopeptidase,0.4 nM
same,inhibition at 0.01 µM,trypsin,0%
same,inhibition at 0.01 µM,chymotrypsin,0%
same,"Inhibition rate, leucine aminopeptidase",leucine aminopeptidase; 1 × 10^-8 M,0%
same,inhibition at 0.01 µM,elastase,0%
same,inhibition at 0.01 µM,cathepsin B,0%
"CC(=O)ON=C[C@@H]1CSCN1C(=O)[C@@H]1CCCN1C(=O)OCc1ccccc1 [Compound 16, (4R)-3-(N-Benzyloxycarbonyl-L-prolyl)-4-thiazolidinecarboxaldehyde O-acetyloxime]",IC50,prolyl endopeptidase,100 nM
"O=C[C@@H]1CCCN1C(=O)[C@@H]1CSCN1C(=O)CN1CCCC1=O [Compound 6, N-[(2-Oxo-1-pyrrolidinyl)acetyl]-L-thioprolyl-L-prolinal]",IC50,prolyl endopeptidase,1.5 nM
